Where a SMILES comes first, the peptide text is derived from it. The star is where a group is joined. Succinyl(4-O-cholesteryl) = CC(C)CCC[C@@H](C)[C@H]1CC[C@H]2[C@@H]3CC=C4C[C@@H](OC(=O)CCC(=O)*)CC[C@]4(C)[C@H]3CC[C@]12C

Broadly, the EC50 is the concentration at which the effect is half-maximal. A lower EC50 goes with greater potency. The Kd is a measure of binding affinity in units of concentration. Low readings indicate tighter binding, high ones weaker binding.

One assay relates to hMPV A2. The assay is classed as cell-based. The settings on record: Vero cells, plaque reduction. In outline: (§1)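 Plaque reduction in Vero cells (40000/well), 8 concentrations in duplicate; compound pre-mixed with ~200 PFU virus 1 h at 33° C, adsorbed 2 h at 37° C, then overlay with compound, 0.8% CMC, 5 μg/ml trypsin, 0.5% DMSO for 1 day at 33° C. Plaques immunostained (TrueBlue) and counted; EC50 by four-parameter fit.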

Another assay deals with hMPV B1. The assay is classed as cell-based. The following applies: Vero cells, plaque reduction. In outline:
as §1

The next assay addresses T1, hPIV-N51 (139-189) (Human parainfluenza 3 virus, UniProt P06828).
T1 construct: hPIV-N51 (139-189)
The assay is described as follows: SPR affinity to hPIV-N51 coupled on CM5 chip. The assay is classed as binding.

T1 sequence (P06828 139-189): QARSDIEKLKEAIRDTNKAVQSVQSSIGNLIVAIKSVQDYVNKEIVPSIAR

Regarding `CC[C@H](C)[C@H](NC(=O)[C@H](CCCCN)NC(=O)[C@H](CCCCN)NC(=O)[C@H](CC(C)C)NC(=O)[C@H](CO)NC(=O)[C@H](CCC(=O)O)NC(=O)[C@H](CCC(=O)O)NC(=O)[C@@H](NC(=O)[C@H](CCCCN)NC(=O)[C@H](CCCCN)NC(=O)[C@H](CC(N)=O)NC(=O)[C@@H](NC(=O)[C@H](CCC(=O)O)NC(=O)[C@H](CCC(=O)O)NC(=O)[C@@H](NC(=O)[C@H](CCCCN)NC(=O)[C@H](CCCCN)NC(=O)[C@H](CC(=O)O)NC(=O)[C@H](Cc1ccccc1)NC(=O)[C@H](CCC(=O)O)NC(=O)[C@H](CC(=O)O)NC(=O)[C@H](Cc1c[nH]c2ccccc12)NC(C)=O)[C@@H](C)CC)C(C)C)[C@@H](C)CC)C(=O)N[C@@H](CCC(=O)O)C(=O)N[C@@H](CCC(=O)O)C(=O)N[C@@H](CO)C(=O)N[C@@H](CC(=O)O)C(=O)N[C@@H](CCCCN)C(=O)N[C@@H](CCCCN)C(=O)N[C@@H](CC(C)C)C(=O)N[C@@H](Cc1c[nH]cn1)C(=O)N[C@@H](CC(N)=O)C(=O)N[C@H](C(=O)N[C@@H](CCC(=O)O)C(=O)N[C@@H](C)C(=O)N[C@@H](C)C(=O)N[C@@H](C)C(=O)N[C@@H](CCCCN)C(=O)N[C@@H](CCCCNC(=O)CCC(=O)O[C@H]1CC[C@@]2(C)C(=CC[C@H]3[C@@H]4CC[C@H]([C@H](C)CCCC(C)C)[C@@]4(C)CC[C@@H]32)C1)C(N)=O)C(C)C` [Compound 44] (Ac-WDEFDKKIEEVNKKIEESLKKIEESDKKLHNVEAAAKK(Succinyl(4-O-cholesteryl))-NH2), the EC50 stood at 0.0146 µM in the assay with hMPV A2 and 0.0066 µM with hMPV B1. On hPIV-N51 (139-189), this compound registered a Kd of 6.86 µM.
Take `CC[C@H](C)[C@H](NC(=O)[C@H](CO)NC(=O)[C@H](C)NC(=O)[C@H](CC(=O)O)NC(=O)[C@H](Cc1ccccc1)NC(=O)[C@H](CCC(=O)O)NC(=O)[C@H](CC(=O)O)NC(=O)[C@H](Cc1c[nH]c2ccccc12)NC(C)=O)C(=O)N[C@@H](CO)C(=O)N[C@@H](CCC(N)=O)C(=O)N[C@H](C(=O)N[C@@H](CC(N)=O)C(=O)N[C@@H](CCC(=O)O)C(=O)N[C@@H](CCCCN)C(=O)N[C@H](C(=O)N[C@@H](CC(N)=O)C(=O)N[C@@H](CCC(N)=O)C(=O)N[C@@H](CO)C(=O)N[C@@H](CC(C)C)C(=O)N[C@@H](CCC(=O)O)C(=O)N[C@@H](CCC(=O)O)C(=O)N[C@H](C(=O)N[C@@H](CCCNC(=N)N)C(=O)N[C@@H](CCCCN)C(=O)N[C@@H](CO)C(=O)N[C@@H](CC(=O)O)C(=O)N[C@@H](CCC(=O)O)C(=O)N[C@@H](CC(C)C)C(=O)N[C@@H](CC(C)C)C(=O)N[C@@H](Cc1c[nH]cn1)C(=O)N[C@@H](CC(N)=O)C(=O)N[C@@H](CCC(=O)O)C(=O)N[C@@H](C)C(=O)N[C@@H](C)C(=O)N[C@@H](C)C(=O)N[C@@H](CCCCN)C(=O)N[C@@H](CCCCNC(=O)CCC(=O)O[C@H]1CC[C@@]2(C)C(=CC[C@H]3[C@@H]4CC[C@H]([C@H](C)CCCC(C)C)[C@@]4(C)CC[C@@H]32)C1)C(N)=O)[C@@H](C)CC)[C@@H](C)CC)C(C)C` [Compound 45] (Ac-WDEFDASISQVNEKINQSLEEIRKSDELLHNEAAAKK(Succinyl(4-O-cholesteryl))-NH2): the 50% effective concentration (EC50) with hMPV A2 is 0.201 µM; with hMPV B1 it was 0.0131 µM. In addition, the Kd at hPIV-N51 (139-189) stood at 179 µM.
The matching figures for `CC[C@H](C)[C@H](NC(=O)[C@H](CCCCN)NC(=O)[C@H](CCCCN)NC(=O)[C@H](CC(C)C)NC(=O)[C@H](CO)NC(=O)[C@H](CCC(N)=O)NC(=O)[C@H](CC(N)=O)NC(=O)[C@@H](NC(=O)[C@H](CCCCN)NC(=O)[C@H](CCCCN)NC(=O)[C@H](CC(=O)O)NC(=O)[C@H](Cc1ccccc1)NC(=O)[C@H](CCC(=O)O)NC(=O)[C@@H](NC(=O)[C@H](CCCCN)NC(=O)[C@H](CCCCN)NC(=O)[C@H](CC(N)=O)NC(=O)[C@@H](NC(=O)[C@H](CC(C)C)NC(=O)[C@H](CCC(=O)O)NC(=O)[C@H](CC(=O)O)NC(=O)[C@H](CO)NC(C)=O)C(C)C)[C@@H](C)CC)[C@@H](C)CC)C(=O)N[C@@H](CCC(=O)O)C(=O)N[C@@H](CCC(=O)O)C(=O)N[C@@H](CO)C(=O)N[C@@H](CC(=O)O)C(=O)N[C@@H](CCCCN)C(=O)N[C@@H](CCCCN)C(=O)N[C@@H](CCCCN)C(=O)N[C@@H](CC(C)C)C(=O)N[C@@H](CCC(=O)O)C(=O)N[C@@H](C)C(=O)N[C@@H](C)C(=O)N[C@@H](C)C(=O)N[C@@H](CCCCN)C(=O)N[C@@H](CCCCN)C(N)=O` [Compound 51] (Ac-SDELVNKKIEFDKKINQSLKKIEESDKKKLEAAAKK-NH2): 0.0188 µM, 0.00382 µM and 0.0514 µM.
In the same order, the values of “Ac-FDEEISQVNEKINQSLAFIRKSDELLHNVNAGKSTTEAAAKK(Succinyl(4-O-cholesteryl))-NH2 [Compound 26]” are 0.103 µM, 0.00285 µM and 2.58 µM.
The matching figures for “Ac-LVKKIDEFDASISQVNEKINQSLEEIRKSDELLHNVGSGSGK(Succinyl(4-O-cholesteryl))-NH2 [Compound 29]”: 0.0416 µM, 0.0111 µM and 1.73 µM.
As for “Ac-WDEFDASISQVNEKINQSLEEIRKSDELLHNVNAGLGSGSGK(Succinyl(4-O-cholesteryl))-NH2 [Compound 27]”, the EC50 in the assay with hMPV A2 was determined as 0.0783 µM; in the assay with hMPV B1, 0.0105 µM. On hPIV-N51 (139-189), this compound gave a Kd of 0.812 µM.
As for “Ac-WDEFDASISQVNEKINQSLEEIRKSDELLHNVNALEAAAKK(Succinyl(4-O-cholesteryl))-NH2 [Compound 38]”, the EC50 in the assay on hMPV A2 stood at 0.128 µM; with hMPV B1, 0.0166 µM. Besides, the Kd on hPIV-N51 (139-189) is 24.5 µM.

The record behind these values is patent publication US20260250325A1, “Antiviral Polypeptide Membrane Fusion Inhibitor, and Preparation Method and Application Thereof” (priority 2025, published 2026).
